Data: US11596637B2, “CHK1 (SRA737)/PARPi combination methods of inhibiting tumor growth” (SIERRA ONCOLOGY, INC., priority 2017, dated 2023)
Where two headings read alike, the source gives them in different places.

Tests used:
10 cancer cell lines = assay type: cell-based; details: for single agent activity across the cancer cell lines tested (in words): 10 cancer cell lines
Method: (§1) Briefly, cell lines were preserved in liquid nitrogen and thawed and expanded in growth media containing full serum. As the cells reached expected doubling times, the screening assay began. Cells were seeded in growth media and equilibrated via centrifugation. The cell cultures were placed in incubators and then underwent treatment. Assay plates were collected and ATP levels were measured. Assay plates were incubated with combinations for seventy two (72) or ninety six (96) hours in simultaneous and sequential dosing schedules.
(§2) Cell lines that have been preserved in liquid nitrogen were thawed and expanded in growth media containing full serum. Once cells have reached expected doubling times, screening began. Cells were seeded in growth media in black 384-well tissue culture treated plates at cell densities as listed in Appendix 1 incorporated into and part of this specification. Cells were equilibrated in assay plates via centrifugation and placed in incubators (attached to the Dosing Modules) at 37° C. for 24 hours before treatment. […] These Tzero (T0) plates were read using ultra-sensitive luminescence on Envision plate readers. Assay plates were incubated with compounds for 72 and were then analyzed using ATPLite™.
(§3) Chalice Analyzer allows two ways of visualizing single agent dose response curves. The Logistics Curve fit modeling in Analyzer uses sigmoidal modeling of the data points. In most contexts, the Logistics Curve fit will accurately model the dose response curve. All subsequent analyses for the single agent and combination activities of SRA737 contained within the Examples use the Linear Interpolation Curve fit.
(§4) A GI 100% represents complete growth inhibition (cytostasis) and in this case cells treated with compound for 72 or 96 hours would have the same endpoint reading as T0 control cells. A GI of 200% represents complete death (cytotoxicity) of all cells in the culture well and in this case the T reading at 72 or 96 hours will be lower than the T0 control (values near or at zero). These GI calculations were used in all single agent and combination data analysis for the combination screen.
(§5) Single agent activity of SRA737 and four PARP inhibitors in each of 10 cancer cell lines comprising breast, ovarian, prostate sarcoma and head and neck cancer cells was assessed (FIGS. 3-9). The 10 cancer cell lines examined were: A673, B-474, CAL-27, DU-145, MDA-MB-231, OVCAR-3, OVCAR-5, PC-3, HT-29 and SK-BR-3. The cell lines were screened with a 72 hour treatment schedule. Cell viability was measured by detection of ATP metabolism using an ATP monitoring luminescence detection assay (ATPLite™) GI50, IC50, Maximum Response Observed (Max Response) were calculated (FIG. 5).

PC-3 cells = assay: Single agent assessment, ATPLite cell viability, 72 hour treatment; assay type: cell-based, human
Method: as §1, §2, §3, §4, §5

MDA-MB-231 cells = assay: as above; assay type: cell-based, human
Method: as §1, §2, §3, §4, §5

CAL-27 cells = assay: as above; assay type: cell-based, human
Method: as §1, §2, §3, §4, §5

HT-29 cells = assay: as above; assay type: cell-based, human
Method: as §1, §2, §3, §4, §5

OVCAR-5 cells = assay: as above; assay type: cell-based, human
Method: as §1, §2, §3, §4, §5

BT-474 cells = assay: as above; assay type: cell-based, human
Method: as §1, §2, §3, §4, §5

DU145 cells = assay: as above; assay type: cell-based, human
Method: as §1, §2, §3, §4, §5

A673 cells = assay: as above; assay type: cell-based, human
Method: as §1, §2, §3, §4, §5

SK-BR-3 cells = assay: as above; assay type: cell-based, human
Method: as §1, §2, §3, §4, §5

OVCAR-3 cells = assay: as above; assay type: cell-based, human
Method: as §1, §2, §3, §4, §5

Question: `Cn1ncnc1[C@H]1c2n[nH]c(=O)c3cc(F)cc(c23)N[C@@H]1c1ccc(F)cc1` [BMN 673, Talazoparib] was tested. Which “single agent activity across the cancer cell lines tested (in words)” value (10 cancer cell lines; 72 hour treatment) did it give?
Answer: activity in most of the cancer cell lines tested

Question: For `NC(=O)c1cccc2cn(-c3ccc([C@@H]4CCCNC4)cc3)nc12` [Niraparib], which “single agent activity across the cancer cell lines tested (in words)” value (10 cancer cell lines; 72 hour treatment) is on record?
Answer: activity in most of the cancer cell lines tested

Question: With `O=C(c1cc(Cc2n[nH]c(=O)c3ccccc23)ccc1F)N1CCN(C(=O)C2CC2)CC1` [Olaparib] as the molecule, how does the “single agent activity across the cancer cell lines tested (in words)” value (10 cancer cell lines; 72 hour treatment) read?
Answer: activity in most of the cancer cell lines tested

Question: Which “single agent activity across the cancer cell lines tested (in words)” value (10 cancer cell lines; 72 hour treatment) does the source give for `CNCc1ccc(-c2[nH]c3cc(F)cc4c3c2CCNC4=O)cc1` [Rucaparib] here?
Answer: activity in most of the cancer cell lines tested

Question: `N#Cc1cnc(Nc2cc(NCC3CNCCO3)c(C(F)(F)F)cn2)cn1` (centres unmarked) [SRA737, 5-[[4-[[morpholin-2-yl]methylamino]-5-(trifluoromethyl)-2-pyridyl]amino]pyrazine-2-carbonitrile] was tested. Which “number of cancer cell lines in which single agent activity was demonstrated” value (10 cancer cell lines; of the 10 cancer cell lines, 72 hour treatment) did it give?
Answer: 8

Question: What about the “kind of single agent effect (cytotoxic / cytostatic)” value (10 cancer cell lines; the remaining six responsive cell lines) of the same molecule?
Answer: cytostatic

Question: And the “kind of single agent effect (cytotoxic / cytostatic)” value (10 cancer cell lines; the two most responsive cell lines)?
Answer: modestly cytotoxic

Question: What about the “sensitivity of the cell line to the single agent” value (from here on “sensitivity of the cell line”) (PC-3 cells) of the same molecule?
Answer: least sensitivity

Question: What about the “sensitivity of the cell line” value (MDA-MB-231 cells) of the same molecule?
Answer: least sensitivity

Question: And the “sensitivity of the cell line” value (CAL-27 cells)?
Answer: least sensitivity

Question: What about the “sensitivity of the cell line” value (HT-29 cells) of the same molecule?
Answer: intermediate sensitivity

Question: And the “sensitivity of the cell line” value (OVCAR-5 cells)?
Answer: highest sensitivity

Question: What about the “sensitivity of the cell line” value (BT-474 cells) of the same molecule?
Answer: least sensitivity

Question: What about the “sensitivity of the cell line” value (DU145 cells) of the same molecule?
Answer: intermediate sensitivity

Question: And the “sensitivity of the cell line” value (A673 cells)?
Answer: intermediate sensitivity

Question: What about the “sensitivity of the cell line” value (SK-BR-3 cells) of the same molecule?
Answer: highest sensitivity

Question: What about the “sensitivity of the cell line” value (OVCAR-3 cells) of the same molecule?
Answer: intermediate sensitivity
